Measured values as given in article PMC4992440 (ACS chemical biology, 2016).
Read-outs that look alike come from different tables or passages of the source. Each block holds one molecule with its values, some of them ahead of it.

Key:
[1] = system: p-HDAC5 (Ser259) in BMDMs; experiment: HDAC5 Ser259 phosphorylation in LPS-stimulated BMDMs; type: cell-based, mouse; settings: 1 μM, 6 hr pre-incubation, LPS 30 min
[2] = system: LPS-stimulated C57BL/6 mice; type: in vivo; settings: mouse
PBS solubility = type: physicochemical
[3] = Pharmacokinetics after IP administration in mice; type: in vivo; settings: mouse
[4] = system: Il10 and Nurr77 transcripts in BMDCs; experiment: CREB target gene transcripts in LPS-stimulated BMDCs; type: cell-based, mouse; settings: 1 μM, 24 hr pre-treatment
[5] = mouse, microsomes
[6] = system: IL-10 production in Zymosan A-stimulated BMDCs; experiment: IL-10 production by Zymosan A-stimulated BMDCs; type: cell-based, mouse; settings: read-out: IL-10 EC50, mean ± SD from ≥ 2 independent experiments
BMDCs = experiment: Cellular cytotoxicity in Zymosan A-stimulated BMDCs; type: cell-based, mouse
[7] = system: TNFα, IL-6, IL-12p40, IL-1β in BMDCs; experiment: Inflammatory cytokine production by Zymosan A-stimulated BMDCs; type: cell-based, mouse; settings: 1 μM 24 hr, Zymosan A 18 hr
C57BL/6 mice = experiment: Daily dosing for 1 week in mice: weight, serum triglycerides, adiponectin; type: in vivo, mouse; settings: wild-type mice, daily for 1 week
[8] = Mouse liver microsome stability; settings: mouse liver microsomes; 1 independent experiment
[9] = Serum / plasma protein binding; type: in vitro ADME, mouse

SMILES: COc1ccc(N2C(=O)N(c3c(C)cccc3Cl)Cc3cnc(Nc4ccc(C5CCN(C)CC5)cc4OC)nc32)nc1 [Compound 5]
LPS stimulated phosphorylation of HDAC5 at Ser259 [1]: reduced
LPS-induced increase in Il6 mRNA in colon ([2]; IP 20 mg/Kg): not affected
serum IL-6 levels ([2]; IP 20 mg/Kg, LPS): moderately decreased
increase of serum IL-10 levels ([2]; IP 20 mg/Kg, LPS 1 hour): > 2 fold
Tnf transcript in colon ([2]; IP 20 mg/Kg, throughout the experiment): reduced
phosphorylation of HDAC5 at Ser259 in total splenic leukocytes ([2]; IP 5 – 50 mg/Kg, 15 min before LPS 1 hour): dose dependently decreased
abundance of TNFα in serum ([2]; IP, beginning at 5 mg/Kg, LPS 1 hour): dose-dependently reduced
phosphorylation of HDAC5 at Ser259 in total splenic leukocytes, immunoblotting ([2]; IP, beginning at the 20 mg/Kg dose): below the limit of detection
PBS solubility (PBS solubility): 428 ± 11 µM
changes in viability, activity or grooming ([3]; IP 20 mg/Kg, 24 hour treatment period): no obvious changes
clearance t1/2 ([3]; IP, 20 mg/Kg, serum): > 7 h
Il10 transcript level [4]: increased
Nurr77 transcript level [4]: increased
MLM t1/2 [5]: >2 h
EC50 [6]: 460 ± 110 nM
concentrations at which non-toxic (BMDCs): ≤ 10 µM
IL-1β release [7]: only modestly enhanced
IL-6 production [7]: suppressed
IL-12p40 production [7]: suppressed
TNFα production [7]: suppressed
tolerability of daily injections (C57BL/6 mice): well tolerated

MLM t1/2 [8]: 0.45 h
EC50 [6]: 11 ± 1 nM
SMILES: COc1ccc(N2C(=O)N(c3c(C)cccc3Cl)Cc3cnc(Nc4ccc(N5CCN(C)CC5)cc4)nc32)nc1 [Compound 3]
toxicity in BMDCs (in words) (BMDCs): significantly elevated toxicity

MLM t1/2 [8]: 0.183 h
serum bound [9]: > 99%
EC50 [6]: 220 ± 90 nM
SMILES: COc1ccc(N(C(=O)Nc2c(C)cccc2C)c2cc(Nc3ccc(N4CCN(C)CC4)cc3)ncn2)c(OC)c1 [Compound 1, reference compound]
LPS stimulated phosphorylation of HDAC5 at Ser259 [1]: reduces
